# In US7105534B2, “Imidazo[1,2-α]pyridine ether compounds as ion channel modulators” (Cardiome Pharma Corp., priority 2000, dated 2006):
# Counter-ions that a name gives are not always drawn.
# Tests used:
# [1] = molecular target: T1, Kv1.5 (Homo sapiens, UniProt P22460); assay: Patch-clamp inhibition of cloned ion channel current in transfected HEK cells: Kv1.5; assay type: cell-based; details: steady-state current, -80 mV to +60 mV
# T1 construct: expressed in transfected cells; host or cells: HEK cells, transient transfection, vector pCDNA3
# T1 sequence (P22460 whole entry): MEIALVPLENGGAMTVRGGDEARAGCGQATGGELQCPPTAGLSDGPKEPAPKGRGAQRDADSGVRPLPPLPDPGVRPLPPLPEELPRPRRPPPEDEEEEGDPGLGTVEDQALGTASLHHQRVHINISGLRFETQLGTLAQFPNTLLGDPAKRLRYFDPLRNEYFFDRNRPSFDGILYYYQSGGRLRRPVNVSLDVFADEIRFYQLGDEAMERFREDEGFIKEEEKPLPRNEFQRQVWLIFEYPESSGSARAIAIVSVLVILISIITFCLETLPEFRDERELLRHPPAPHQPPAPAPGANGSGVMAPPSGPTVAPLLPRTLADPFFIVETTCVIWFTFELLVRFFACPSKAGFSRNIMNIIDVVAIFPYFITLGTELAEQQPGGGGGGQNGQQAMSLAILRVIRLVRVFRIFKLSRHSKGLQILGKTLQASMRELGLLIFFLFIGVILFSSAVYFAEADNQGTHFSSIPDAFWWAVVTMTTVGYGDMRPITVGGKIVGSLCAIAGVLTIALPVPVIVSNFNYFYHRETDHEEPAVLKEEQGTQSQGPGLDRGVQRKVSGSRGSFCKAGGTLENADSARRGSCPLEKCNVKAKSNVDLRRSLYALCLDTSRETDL
# Experimental: (§1) The relevant cloned ion channels (e.g. cardiac hH1, Kv1.4, Kv1.5, Kv4.2, Kv2.1, HERG etc.) are studied by transient transfection into HEK cells using the mammalian expression vector pCDNA3. Transfections for each channel type are carried out separately to allow individual study of the ion channel of interest. Cells expressing channel protein are detected by cotransfecting cells with the vector pHook-1 (Invitrogen, San Diego, Calif., USA). […] Equal concentrations of individual channel and pHook DNA are incubated with 10× concentration of lipofectAce in Modified Eagle's Medium (MEM, Canadian Life Technologies) and incubated with parent HEK cells plated on 25 mm culture dishes. After 3–4 hours the solution is replaced with a standard culture medium plus 20% fetal bovine serum and 1% antimycotic. Transfected cells are maintained at 37C in an air/5% CO2 incubator in 25 mm Petri dishes plated on glass coverslips for 24–48 hours to allow channel expression to occur. 20 min prior to experiments, cells are treated with beads coated with phOX. After 15 min, excess beads are […] off with cell culture medium and cells which had beads stuck to them are used for electrophysiological tests.
# (§2) For whole-cell recording the control pipette filling solution contained (in mM): KCl, 130; EGTA, 5; MgCl2, 1; HEPES, 10; Na2ATP, 4; GTP, 0.1; and is adjusted to pH 7.2 with KOH. The control bath solution contained (in mM): NaCl, 135; KCI, 5; sodium acetate, 2.8; MgCl2, 1; HEPES, 10; CaCl2, 1; and is adjusted to pH 7.4 with NaOH. The test ion channel modulating compound is dissolved to 10 mM stock solutions in water and used at concentrations between 0.5 and 100 μM.
# (§3) Coverslips containing cells are removed from the incubator before experiments and placed in a superfusion chamber (volume 250 μl) containing the control bath solution at 22C to 23C. All recordings are made via the variations of the patch-clamp technique, using an Axopatch 200A amplifier (Axon Instruments, CA). Patch electrodes are pulled from thin-walled borosilicate glass (World Precision Instruments; FL) on a horizontal micropipette puller, fire-polished, and filled with appropriate solutions. Electrodes had resistances of […] when filled with control filling solution. Analog capacity compensation is used in all whole cell measurements. In some experiments, leak subtraction is applied to data. Membrane potentials have not been corrected for any junctional potentials that arose between the pipette and bath solution. Data are filtered at 5 to 10 kHz before digitization and stored on a microcomputer for later analysis using the pClamp6 software (Axon Instruments, Foster City, Calif.). Due to the high level of expression of channel cDNA's in HEK cells, there is no need for signal averaging. The average cell capacitance is quite small, and the absence of ionic current at negative membrane potentials allowed faithful leak subtraction of data.
# (§4) The concentration-response curves for changes in peak and steady-state current produced by the test compound are computer-fitted to the Hill equation: f=1−1/[1+([…])^n] [1]
# (§5) where f is the fractional current (f=Idrug/Icontrol) at drug concentration [D]; IC50 is the concentration producing half-maximal inhibition and n is the Hill coefficient.
# (§6) Compounds of the present invention may be evaluated by this method. […] Block is determined from the decrease in peak hH1 Na^+ current, or in steady-state Kv1.5 and integrated Kv4.2 current in the presence of drug. To record Na^+ current, cells are depolarized from the holding potential of −100 mV to a voltage of −30 mV for 10 ms to fully open and inactivate the channel. To record Kv1.5 and Kv4.2 current, cells are depolarized from the holding potential of −80 mV to a voltage of +60 mV for 200 ms to fully open the channel. Currents are recorded in the steady-state at a range of drug concentrations during stimulation every 4 s. […]
# [2] = molecular target: T2, HERG (Homo sapiens, UniProt Q12809); assay: Patch-clamp inhibition of cloned ion channel current in transfected HEK cells: HERG; assay type: cell-based; details: whole-cell patch clamp
# T2 construct: expressed in transfected cells; host or cells: HEK cells, transient transfection, vector pCDNA3
# T2 sequence (Q12809 whole entry): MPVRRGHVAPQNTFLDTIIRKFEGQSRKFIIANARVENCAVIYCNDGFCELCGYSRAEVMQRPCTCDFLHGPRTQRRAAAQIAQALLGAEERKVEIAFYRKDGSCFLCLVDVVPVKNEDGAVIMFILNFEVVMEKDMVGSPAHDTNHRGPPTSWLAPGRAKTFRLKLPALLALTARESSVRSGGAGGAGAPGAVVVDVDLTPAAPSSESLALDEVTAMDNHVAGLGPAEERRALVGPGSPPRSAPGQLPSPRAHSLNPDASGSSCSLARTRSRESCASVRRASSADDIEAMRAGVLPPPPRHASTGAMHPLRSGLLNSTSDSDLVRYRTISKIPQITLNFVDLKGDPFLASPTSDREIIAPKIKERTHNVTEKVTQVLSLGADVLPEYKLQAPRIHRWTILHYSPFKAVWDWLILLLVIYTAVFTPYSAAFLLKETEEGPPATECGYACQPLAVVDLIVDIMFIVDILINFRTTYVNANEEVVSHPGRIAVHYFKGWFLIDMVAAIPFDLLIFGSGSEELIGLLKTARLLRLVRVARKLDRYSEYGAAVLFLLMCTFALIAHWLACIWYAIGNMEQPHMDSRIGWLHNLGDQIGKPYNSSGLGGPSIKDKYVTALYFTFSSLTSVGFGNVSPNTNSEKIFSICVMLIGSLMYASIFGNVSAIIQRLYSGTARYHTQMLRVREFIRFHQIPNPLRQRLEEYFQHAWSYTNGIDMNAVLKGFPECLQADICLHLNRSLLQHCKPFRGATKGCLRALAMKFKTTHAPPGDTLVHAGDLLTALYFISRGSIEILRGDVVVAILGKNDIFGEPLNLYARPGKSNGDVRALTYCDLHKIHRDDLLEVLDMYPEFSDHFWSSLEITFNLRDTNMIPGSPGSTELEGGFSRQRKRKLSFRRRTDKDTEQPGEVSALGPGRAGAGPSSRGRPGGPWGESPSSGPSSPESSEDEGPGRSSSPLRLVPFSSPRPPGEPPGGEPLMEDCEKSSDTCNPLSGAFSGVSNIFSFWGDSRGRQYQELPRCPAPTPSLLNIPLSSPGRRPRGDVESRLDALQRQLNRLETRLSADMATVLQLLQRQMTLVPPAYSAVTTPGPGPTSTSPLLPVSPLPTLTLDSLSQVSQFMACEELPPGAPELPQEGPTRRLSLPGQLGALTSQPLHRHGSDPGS
# Experimental: as §1, §2, §3, §4, §5, §6
IC50 [1],SMILES,IC50 [2]
0.7 µM,"Cc1cn2ccc(C)c(OCCCc3ccc(Cl)cc3Cl)c2n1 [Compound 14, 8-[3-(2,4-DICHLOROPHENYL)PROPOXY]-2,7-DIMETHYLIMIDAZO[1,2-α]PYRIDINE MONOHYDROCHLORIDE]",–
4 µM,"Cc1cn2ccc(C)c(OCC3(c4ccccc4)CC3)c2n1 [Compound 17, 2,7-DIMETHYL-8-[(1-PHENYL-CYCLOPROPYL)METHOXY]IMIDAZO[1,2-α]PYRIDINE MONOHYDROCHLORIDE]",1 µM
3 µM,"Cc1cn2ccc(C)c(OCCCc3ccccc3)c2n1 [Compound 18, 2,7-DIMETHYL-8-[3-PHENYLPROPRXY]IMIDAZO[1,2-α]PYRIDINE MONOHYDROCHLORIDE]",1 µM
0.2 µM,"CC(C)c1cn2cccc(OCCCc3ccc(Cl)cc3Cl)c2n1 [Compound 20, 8-[3-(2,4-DICHLOROPHENYL)PROPOXY]-2-ISOPROPYLIMIDAZO[1,2-α]PYRIDINE MONOHYDROCHLORIDE]",0.1 µM
2 µM,"Cc1nc2c(OCCCc3ccc(Cl)cc3Cl)cccn2c1CO [Compound 21, {8-[3-(2,4-DICHLOROPHENYL)PROPOXY]-2-METHYLIMIDAZO[1,2-α]PYRIDIN-3-yl}METHANOL MMONOHYDROCHLORIDE]",0.06 µM
0.4 µM,"Cc1nc2c(OCCCc3ccc(Cl)cc3Cl)cccn2c1Cl [Compound 22, 3-CHLORO-8-[3-(2,4-DICHLOROPHENYL)PROPOXY]-2-METHYLI[1,2-α]PYRIDINE MMONOHYDROCHLORIDE]",1 µM
3 µM,"FC(F)(F)c1cn2cccc(OCC3(c4ccccc4)CC3)c2n1 [Compound 23, 8-[(1-PHENYLCYCLOPROPYL)METHOXY]-2-(TRIFLUOROMETHYL)IMIDAZO[1,2-α]PYRIDINE MMONOHYDROCHLORIDE]",9 µM
0.8 µM,"Cc1nc2c(OCCCc3ccc(Cl)cc3Cl)cccn2c1N [Compound 26, 3-AMINO-8-[3-(2,4-DICHLOROPHENYL)PROPOXY]-2-METHYLIMIDAZO[1,2-α]PYRIDINE DIHYDROCHLORIDE]",0.2 µM
0.6 µM,"Clc1ccc(CCCOc2cccn3c4c(nc23)CCCC4)c(Cl)c1 [Compound 27, 4-[3-(2,4-DICHLOROPHENYL)PROPOXY]-6,7,8,9-TETRAHYDROBENZO[4,5]IMIDAZO-[1,2-α]PYRDINE MMONOHYDROCHLORIDE]",0.1 µM
0.8 µM,"Cc1nc2c(OCC3(c4ccccc4)CC3)cccn2c1Br [Compound 28, 3-BROMO-2-METHYL-8-[(1-PHENYL-CYCLOPROPYL)METHOXY]IMIDAZO[1,2-α]PYRIDINE MMONOHYDROCHLORIDE]",2 µM
0.7 µM,"Clc1ccc(CCCOc2cccn3c4c(nc23)CCC4)c(Cl)c1 [Compound 29, 7-[3-(2,4-DICHLOROPHENYL)PROPOXY]-2,3-DIHYDRO-1H-3b,8-DIAZOCYCLOPENTA[a]indene MMONOHYDROCHLORIDE]",0.08 µM
1 µM,"CCOC(=O)c1c(C)nc2c(OCC3(c4ccccc4)CC3)cccn12 [Compound 30, ETHYL 2-METHYL-8-[(1-PHENYL-CYCLOPROPYL)METHOXY]IMIDAZO[1,2-α]PYRIDINE-3-CARBOXYLATE MMONOHYDROCHLORIDE]",2 µM
4 µM,"Cc1nc2c(OCC3(c4ccccc4)CC3)cccn2c1CO [Compound 31, {2-METHYL-8-[(1-PHENYLCYCLOPROPYL)METHOXY]IMIDAZO[1,2-α]PYRIDIN-3-yl}-METHANOL MONOHYDROCHLORIDE]",3 µM
4 µM,"Cc1cn2c(C)ccc(OCCCc3ccccc3)c2n1 [Compound 32, 2,5-DIMETHYL-8-(3-PHENYLPROPOXY)IMIDAZO[1,2-α]PYRIDINE MONOHYDROCHLORIDE]",0.3 µM
3 µM,"Cc1cn2c(C)ccc(OCC3(c4ccccc4)CC3)c2n1 [Compound 33, 2,5-DIMETHYL-8-[(1-PHENYL-CYCLOPROPYL)METHOXY]IMIDAZO[1,2-α]PYRIDINE MONOHYDROCHLORIDE]",0.9 µM
1 µM,"Cc1cn2c(C)ccc(OCCCc3ccc(Cl)cc3Cl)c2n1 [Compound 34, 8-[3-(2,4-DICHLOROPHENYL)PROPOXY]-2,5-DIMETHYLIMIDAZO[1,2-α]PYRIDINE MONOHYDROCHLORIDE]",0.04 µM
18 µM,"Cc1nc2c(OCCCc3ccc(Cl)cc3Cl)cccn2c1C(=O)O [Compound 37, SODIUM 8-[3-(2,4-DICHLOROPHENYL)PROPOXY]-2-METHYLIMIDAZO[1,2-α]PYRIDINE-3-CARBOXYLATE]",4 µM
0.4 µM,"CC(C)c1cn2cccc(OCC3(c4ccccc4)CC3)c2n1 [Compound 38, 2-ISOPROPYL-8-[(1-PHENYL-CYCLOPROPYL)METHOXY]IMIDAZO[1,2-α]PYRIDINE MONOHYDROCHLORIDE]",1 µM
0.7 µM,"Cc1nc2c(OCC3(c4ccccc4)CC3)cccn2c1Cl [Compound 39, 3-CHLORO-2-METHYL-8-[(1-PHENYL-CYCLOPROPYL)METHOXY]IMIDAZO[1,2-α]PYRIDINE MONOHYDROCHLORIDE]",3 µM
23 µM,"Cc1nc2c(OCC3(c4ccccc4)CC3)cccn2c1CN(C)C [Compound 40, 3-(DIMETHYLAMINO)METHYL-2-METHYL-8-[(1-PHENYL-CYCLOPROPYL)METHOXY]-IMIDAZO[1,2-α]PYRIDINE DIHYDROCHLORIDE]",1 µM
5 µM,"CC(=O)Nc1c(C)nc2c(OCCCc3ccc(Cl)cc3Cl)cccn12 [Compound 41, 3-ACETAMIDO-8-[3-(2,4-DICHLOROPHENYL)PROPOXY]-2-METHYLIMIDAZO[1,2-α]PYRIDINE MONOHYDROCHLORIDE]",0.6 µM
1.6 µM,"Cc1nc2c(OCC3(c4ccccc4)CC3)cccn2c1N [Compound 43, 3-AMINO-2-METHYL-8-[(1-PHENYL-CYCLOPROPYL)METHOXy]IMIDAZO[1,2-α]PYRIDINE MONOHYDROCHLORIDE]",0.7 µM

SMILES,IC50 [1],IC50 [2]
"Cc1nc2c(OCCCc3ccc(Cl)cc3Cl)cccn2c1Br [Compound 19, 3-BROMO-8-[3-(2,4-DICHLOROPHENYL)PROPOXY]-2-METHYLIMIDAZO[1,2-α]PYRIDINE MONOHYDROCHLORIDE]",0.3 µM,0.4 µM
"CNCc1c(C)nc2c(OCCCc3ccc(Cl)cc3Cl)cccn12 [Compound 24, 8-[3-(2,4-DICHLOROPHENYL)PROPOXY]-3-[(METHYLAMINO)METHYL]-2-METHYL-IMIDAZO[1,2-α]PYRIDINE DIHYDROCHLORIDE]",2 µM,0.2 µM
"Cc1nc2c(OCCCc3ccc(Cl)cc3Cl)cccn2c1CN(C)C [Compound 25, 8-[3-(2,4-DICHLOROPHENYL)PROPOXY]-3-[(DIMETHYLAMINO)METHYL]-2-METHYLIMIDAZO[1,2-α]PYRIDINE DIHYDROCHLORIDE]",8 µM,0.1 µM
